The source of these data is publication PMC12454639, “Direct disassembly of α-syn preformed fibrils into α-syn monomers by an all-D-peptide” (NPJ Parkinson's Disease, 2025).

Square brackets hold non-standard residues; d marks the D form. Peptide text beside a SMILES is read from it.

The assay concerns α-syn monomer. The assay can be described thus: 100 kDa MWCO fractionation of de novo aggregation samples followed by ELISA. In kind it is biochemical, Human. The note with it: 7 days, ELISA n = 3. Here is the method: Fig. 7 De novo aggregation analysis of α-syn in the presence and absence of SVD-1a. A De novo ThT assay of 10 µM α-syn with and without 20 µM SVD-1a. ThT fluorescence progression was measured in a 96-well non-binding half-area plate (Corning, USA) with a FLUOStar plate reader (BMG labtech, GE) at λex = 448 nm and λem = 482 nm with 300 rpm continuous orbital shaking between reads. For induction of aggregation, one borosilicate bead per well was added (d = 3 mm, Hilgenberg, GE). Data are shown as mean values with ±SD (n = 5). B CD secondary structure analysis of de novo aggregation samples. Samples were incubated as described in (A) without added ThT (n = 3) and subsequently pooled for CD analysis. Far-UV ellipticity of the samples was measured in a quartz cuvette (l = 10 mm) in a J-1100 CD-spectrometer (Jasco, GE). In addition to (A), a sample with 20 µM SVD-1a alone was incubated under identical conditions and later used as a reference for the sample with α-syn and SVD-1a. For this sample (α-syn + SVD-1a (after incubation)), the SVD-1a reference subtracted CD spectrum is shown. […] D α-Syn in the flow through (MWCO < 100 kDa) was quantified using an α-syn specific ELISA (BioLegend, Human α-Synuclein (Colorimetric), 448607, n = 3). E Retentate and flow-through samples were analyzed using SDS–PAGE with silver staining. […]
(In general: In an ELISA, binding on a coated surface is turned into a signal by an enzyme label.)

Turning to `CC[C@@H](C)[C@@H](NC(=O)[C@@H](Cc1c[nH]cn1)NC(=O)[C@@H](CCC(=O)O)NC(=O)[C@@H](CCC(N)=O)NC(=O)[C@@H](Cc1c[nH]c2ccccc12)NC(=O)[C@@H](Cc1ccc(O)cc1)NC(=O)[C@H](NC(=O)[C@@H](CCC(=O)O)NC(=O)[C@@H](Cc1c[nH]cn1)NC(=O)[C@H](NC(=O)[C@H]1CCCN1C(=O)[C@@H](CC(C)C)NC(=O)[C@H](N)CCCNC(=N)N)[C@H](C)O)[C@H](C)O)C(=O)N[C@H](Cc1c[nH]c2ccccc12)C(=O)N[C@H](Cc1c[nH]cn1)C(=O)N[C@H](C)C(=O)N[C@H](CCCNC(=N)N)C(=O)N[C@H](CCCNC(=N)N)C(=O)N[C@H](CCCNC(=N)N)C(=O)N[C@H](CCCNC(=N)N)C(=O)N[C@H](CCCNC(=N)N)C(N)=O` [SVD-1a] (H-[dR][dL][dP][dT][dH][dE][dT][dY][dW][dQ][dE][dH][dI][dW][dH][dA][dR][dR][dR][dR][dR]-NH2), the “monomeric α-syn in flow-through” value (10 µM α-syn with 5, 10, 20 µM SVD-1a, controls ~3.7 µM before, ~0.3 µM after incubation without compound) is reported as “concentration-dependent stabilization of monomeric α-syn”. Moreover, the “monomeric α-syn in flow-through vs non-pre-incubated control” value (20 µM SVD-1a, 10 µM α-syn) is “restoring monomer levels in the eluate to those of the non-pre-incubated control”.
